Assay results published in patent publication US12232493B2, “Biopesticide formulation and treatment method thereof” (Xinjiang Institute of Ecology and Geography, Chinese …, priority 2023, dated 2025).
Read-outs that look alike come from different tables or passages of the source.

Columns and labels:
sorghum = assay: Pot experiment under drought treatment, terrein seed soaking or spraying, sorghum; assay type: in vivo
Protocol: (§1) An embodiment of effects of 2 μg/mL terrein formulation on the growth of four crops by seed soaking treatment under drought conditions is as follows. Terrein (purity 95%) is prepared as a solution with a concentration of 2 μg/mL in distilled water, and pakchoi, mung bean, sorghum, and wheat seeds are soaked in it for 6 hours, and the seeds are also soaked in distilled water as a blank control. Subsequently, the soaked crop seeds are sown into potted plants, and each of the treatment group is replicated five times. When the seedlings grew to about 10 cm, the drought treatment culture is carried out. The room temperature is 25° C., the humidity is 70%, 12 hours of light and 12 hours of darkness each day, and the light intensity is 80-100 μmol·m^−2·s^−1. During the period, the soil was kept in a dry state, and 200 mL is watered every week for 30 days, with a total of 800 mL. The drought culture conditions described below are all treated in the same way. After 30 days, the root length, seedling height, and fresh weight of pakchoi, mung bean, sorghum, and wheat are measured, and 10 seedlings are selected from each of the treatment groups, with a total of 50 plants (N=50), hereafter, they are dried in an oven and then measured dry weight. The growth rates of root length, seedling height, fresh weight, and dry weight of pakchoi, mung bean, sorghum, and wheat under 2 μg/mL compared to the blank control are first calculated, that is, An embodiment of effects of 10 μg/mL terrein formulation on the growth of four crops by seed soaking treatment under drought conditions is as follows. Terrein is prepared as a solution with a concentration of 10 μg/mL in distilled water, and pakchoi, mung bean, sorghum, and wheat seeds are soaked in it for 6 hours, and the seeds are also soaked in distilled water as a blank control. Subsequently, the soaked crop seeds are sown into potted plants. When the seedlings grew to about 10 cm, the drought treatment culture is carried out. After 30 days, the root length, seedling height, and fresh weight of pakchoi, mung bean, sorghum, and wheat are measured, hereafter, they are dried in an oven and then measured dry weight. An embodiment of effects of 2 μg/mL terrein formulation on the growth of four crops by spraying treatment under drought conditions is as follows. Seeds of four tested plants are soaked in distilled water and then sowing. Terrein is prepared as a solution with a concentration of 2 μg/mL in distilled water. When the potted pakchoi, mung bean, sorghum, and wheat grow to about 10 cm (15-20 days after sowing), spray them once, with an amount of about 3 mL, and distilled water sprayed used as blank control. Subsequently, the drought treatment culture is carried out. The room temperature is 25° C., the humidity is 70%, 12 hours of light and 12 hours of darkness each day, and the light intensity is 80-100 μmol·m^−2·s^−1. During the period, the soil was kept in a dry state, and 200 mL is watered every week for 30 days, with a total of 800 mL. After 30 days, the root length, seedling height, and fresh weight of pakchoi, mung bean, sorghum, and wheat are measured, hereafter, they are dried in an oven and then measured dry weight. An embodiment of effects of 10 μg/mL terrein formulation on the growth of four crops by spraying treatment under drought conditions is as follows. Seeds of four tested plants are soaked in distilled water and then sowing. Terrein is prepared as a solution with a concentration of 10 μg/mL in distilled water. When the potted pakchoi, mung bean, sorghum, and wheat grow to about 10 cm (15-20 days after sowing), spray them once, with an amount of about 3 mL, and distilled water sprayed used as blank control. Subsequently, the drought treatment is carried out. After 30 days, the root length, seedling height, and fresh weight of pakchoi, mung bean, sorghum, and wheat are measured, hereafter, they are dried in an oven and then measured dry weight. […]

wheat = assay: Pot experiment under drought treatment, terrein seed soaking or spraying, wheat; assay type: in vivo
Protocol: as §1

pakchoi = assay: Indoor petri dish bioassay, pakchoi under drought treatment conditions; assay type: in vivo; details: for inhibition at 250 µg/mL: terrein 250 μg/mL
Protocol: The present invention has done corresponding indoor petri dish bioassay experiments before, with pakchoi under drought treatment conditions as the recipient plant, terrein as the donor, and the concentration of terrein is set to 0, 2, 10, 50 and 250 μg/mL. […] Therefore, the present invention only selects low concentrations (2 μg/mL, 10 μg/mL) for experiments to confirm the effect of terrein on drought resistance and growth promotion of crops in outdoor pot experiments.

Solubility in water = assay type: physicochemical
[1] = 2 μg/mL terrein seed soaking treatment, drought, 30 days
[2] = 2 μg/mL terrein seed soaking, drought, 30 days
[3] = 2 μg/mL terrein spraying at seedling stage
[4] = 2 μg/mL terrein spraying treatment, drought, 30 days
[5] = 2 μg/mL terrein spraying, drought, 30 days
[6] = 10 μg/mL terrein seed soaking treatment, drought, 30 days
[7] = 10 μg/mL terrein seed soaking, drought
[8] = 10 μg/mL terrein seed soaking, drought, 30 days
[9] = 10 μg/mL terrein spraying treatment, drought, 30 days
[10] = 10 μg/mL terrein spraying, drought
[11] = 10 μg/mL terrein spraying, drought, 30 days

C/C=C/C1=CC(=O)[C@H](O)[C@H]1O [terrein]
seedling height (sorghum; [1]): 40.43 cm
effect on growth (sorghum; [2]): no significant effect
effect on growth (sorghum; [3]): significant promoting effect
dry weight (sorghum; [4]): 0.40 g
fresh weight (sorghum; [4]): 1.92 g
root length (sorghum; [4]): 38.15 cm
seedling height (sorghum; [4]): 39.14 cm
growth rate of dry weight compared with the blank control (sorghum; [5]): 20.80%
growth rate of fresh weight compared with the blank control (sorghum; [5]): 18.92%
growth rate of root length compared with the blank control (sorghum; [5]): 18.49%
dry weight (sorghum; [6]): 0.38 g
fresh weight (sorghum; [6]): 1.88 g
root length (sorghum; [6]): 33.99 cm
seedling height (sorghum; [6]): 39.69 cm
effect on growth (sorghum; [7]): significant promoting effect
growth rate of dry weight compared with the blank control (sorghum; [8]): 15.42%
dry weight (sorghum; [9]): 0.42 g
fresh weight (sorghum; [9]): 1.93 g
root length (sorghum; [9]): 42.01 cm
seedling height (sorghum; [9]): 38.16 cm
effect on growth (sorghum; [10]): significant promoting effects
growth rate (promotion rate) of dry weight compared with the blank control (sorghum; [11]): 25.19%
growth rate (promotion rate) of fresh weight compared with the blank control (sorghum; [11]): 19.90%
growth rate (promotion rate) of root length compared with the blank control (sorghum; [11]): 30.50%
effect on growth (wheat; 2 μg/mL terrein seed soaking): significantly promote
dry weight (wheat; [1]): 0.26 g
fresh weight (wheat; [1]): 1.10 g
root length (wheat; [1]): 16.13 cm
seedling height (wheat; [1]): 21.55 cm
promotion rate of dry weight compared with the blank control (wheat; [2]): 21.99%
promotion rate of fresh weight compared with the blank control (wheat; [2]): 52.30%
effect on growth (wheat; [3]): significant promoting effect
dry weight (wheat; [4]): 0.25 g
fresh weight (wheat; [4]): 1.16 g
root length (wheat; [4]): 17.02 cm
seedling height (wheat; [4]): 18.93 cm
growth rate of dry weight compared with the blank control (wheat; [5]): 16.29%
growth rate of fresh weight compared with the blank control (wheat; [5]): 60.98%
dry weight (wheat; [6]): 0.26 g
fresh weight (wheat; [6]): 1.27 g
root length (wheat; [6]): 18.96 cm
seedling height (wheat; [6]): 20.25 cm
effect on growth (wheat; [7]): significant promoting effect
growth rate of dry weight compared with the blank control (wheat; [8]): 22.35%
growth rate of fresh weight compared with the blank control (wheat; [8]): 76.39%
growth rate of root length compared with the blank control (wheat; [8]): 25.09%
dry weight (wheat; [9]): 0.29 g
fresh weight (wheat; [9]): 1.42 g
root length (wheat; [9]): 25.37 cm
seedling height (wheat; [9]): 20.49 cm
effect on growth (wheat; [10]): significant promoting effects
growth rate (promotion rate) of dry weight compared with the blank control (wheat; [11]): 34.79%
growth rate (promotion rate) of fresh weight compared with the blank control (wheat; [11]): 97.21%
growth rate (promotion rate) of root length compared with the blank control (wheat; [11]): 67.40%
promotion rate of pakchoi root length (pakchoi; terrein 2 μg/mL): 13.51%
promotion rate of pakchoi seedling height (pakchoi; terrein 2 μg/mL): 21.70%
promotion rate of pakchoi root length (pakchoi; terrein 10 μg/mL): 18.82%
promotion rate of pakchoi seedling height (pakchoi; terrein 10 μg/mL): 23.26%
effect on seedling height (pakchoi; terrein 50 μg/mL): not significant
inhibition at 50 µg/mL (pakchoi; terrein 50 μg/mL, read-out: inhibition rate of pakchoi root length): 16%
inhibition at 250 µg/mL (pakchoi; read-out: inhibition rate of pakchoi root length): 86.8%
inhibition at 250 µg/mL (pakchoi; read-out: inhibition rate of pakchoi seedling height): 5.71%
solubility in water (Solubility in water): easily soluble in water
